# Results reported in patent US6372261B1, “Process for producing Guilu ErXiangao” (Pharmaceutical Industry Technology and Development Center, priority 2000, dated 2002).
# System: leukopenia caused by 5-FU
# Experiment: hemopoietic effect in animal experimentation: leukopenia caused by 5-FU in rats, blood cell counts
# Type: in vivo
# [1] = male rats, 5-FU 100 mg/kg orally twice on 8th day, blood after 14 days, mean ± SEM
# [2] = rats, 5-FU model, values of Table 1
# [3] = rats, p<0.01 vs control (5-FU), p<0.05 vs trial 1
smiles,measurement,setting,value
"O=c1[nH]cc(F)c(=O)[nH]1 [Trial 5-FU, 5-fluorouracil]",GrC. (granulocyte),[1],0.66 ± 0.11 × 10^3/μl
same,LymC. (lymphocyte),[1],2.21 ± 0.15 × 10^3/μl
same,MonoC. (monocyte),[1],0.84 ± 0.12 × 10^3/μl
same,Platelet,[1],983.5 ± 52.0 × 10^3/μl
same,RBC (red blood cell),[1],9.58 ± 0.14 × 10^6/μl
same,WBC (white blood cell),[1],3.70 ± 0.23 × 10^3/μl
same,granulocyte (mean),[2],0.66 ± 0.11 10^3/µL
same,lymphocyte (mean),[2],2.21 ± 0.15 10^3/µL
same,monocyte (mean),[2],0.84 ± 0.12 10^3/µL
same,white blood cells (mean),[2],3.7 ± 0.23 10^3/µL
same,effect on granulocytes (in words),"rats, p<0.01 vs control (5-FU) or vs trial 1",inhibited
same,effect on lymphocytes (in words),[3],inhibited
same,effect on monocytes (in words),[3],inhibited
same,effect on white blood cells (in words),"rats, unpaired student t test, p<0.01 vs control (5-FU) or vs trial 1",inhibited
